Experimental data published in PMC5853558, “De novo identification of lipid II binding lipopeptides with antibacterial activity against vancomycin-resistant bacteria” (Chemical Science, 2017).
In brackets after ≈: the same amount, converted by molar mass. Read-outs that look alike come from different tables or passages of the source. *1 amine or outer side, *2 acyl side, *3 side chain or, on linkers, in order; H or OH if unused. Where a SMILES comes first, the peptide text is derived from it. Bridges are numbered along the chain shown (N, C = ends). [ ]: non-standard residue; d: D form. The star is where a group is joined. TBMB = c1c(C[*:1])cc(C[*:3])cc1C[*:2]; NH(CH2)11CH3 = CCCCCCCCCCCCN*; NHOctyl = CCCCCCCCN*; NHHex = CCCCCCN*

Legend:
M. luteus (NCTC2665) = assay: microbe, parasite or virus in culture; format: cell-based, Micrococcus luteus; settings: for MIC M. luteus: Supplemental table S7, P8 with varying lipids, broth microdilution; for MIC: Micrococcus luteus
Experimental: (§1) Section 4 Biological and biochemical experiments
(§2) 4.1 Minimum inhibitory concentration assay
(§3) MIC values were determined by using the broth microdilution method. Peptides were dissolved first in DMSO and diluted with broth so that the final peptide concentration was 1024 µg/ml and the DMSO concentration was 4%. Peptide serial dilutions were made in TSB in a polypropylene 96-wells plate using 50 µl volumes. An overnight culture of the organism of interest was diluted to and OD600 of 0.01 and grown until they reach 0.5. The culture was then diluted to 1 x 10^6 CFU/ml and 50 µl of this suspension was added to each well. The highest concentrations were then 512 µg/ml peptide and 2% DMSO. The plates were incubated at the preferred growth temperature of the organism that was used and 250 rpm. […] When […]
(§4) determining the MICs of the lipidated peptides, the lipopeptides were first dissolved in DMSO and diluted with TSB so that the peptide concentration was 128 µg/ml and the DMSO concentration was 4%. After inoculation the highest peptide concentration evaluated was 64 µg/ml and the DMSO concentration was 2%. A DMSO control was tested for each strain to ensure the DMSO did not affect the growth of the particular strain. […]

E. faecium (VRE155) = assay: microbe, parasite or virus in culture; format: cell-based, Enterococcus faecium; settings: for MIC VRE E155: Supplemental table S7, P8 with varying lipids, broth microdilution; for MIC: Enterococcus faecium, read-out: MIC E. faecium (VRE155)
Experimental: as §1, §2, §3, §4

Sheep blood = assay: Hemolysis assay; format: cell-based; settings: Supplemental table S7; sheep blood cells in PBS, 32 µg/ml, 1 h at 37°C, absorption at 414 nm
Experimental: Sheep blood in Alsever’s solution (2 mL) was diluted with PBS (13 mL) and centrifuged (2,000 RPM, 5 min). The supernatant was discarded and the cells were washed with another 13 mL of PBS and centrifuged. Washing was continued until the supernatant was clear. After the final wash the supernatant was discarded and the packed cells were kept on ice. Serial dilutions of each peptide were made in 50 µl PBS with the highest tested concentration 64 µg/mL in PBS, 2%
DMSO. The packed cells (150 µL) were suspended in PBS (10 mL) and 50 µL of this suspension was added to each well. A well plate column containing 0.1% triton x-100 in DI water was used as the 100% lysis control and a second column with PBS (with 2% DMSO) served as the 0% lysis control. After incubation at 37°C for 1h the plates were centrifuged (2,000 RPM, 5 min) and 25 µL of the supernatant was added to 100 µL DI water in a flat-bottom 96-wells plate (polystyrene). […]

E. faecium (VRE0321) = assay: microbe, parasite or virus in culture; format: cell-based, Enterococcus faecium; settings: Enterococcus faecium, read-out: MIC E. faecium (VRE0321)
Experimental: as §1, §2, §3, §4

E. faecium (VRE2297) = assay: microbe, parasite or virus in culture; format: cell-based, Enterococcus faecium; settings: Enterococcus faecium, read-out: MIC E. faecium (VRE2297)
Experimental: as §1, §2, §3, §4

E. faecium (E980) = assay: microbe, parasite or virus in culture; format: cell-based, Enterococcus faecium; settings: Enterococcus faecium, read-out: MIC E. faecium (E980)
Experimental: as §1, §2, §3, §4

E. faecium (VRE7391) = assay: microbe, parasite or virus in culture; format: cell-based, Enterococcus faecium; settings: Enterococcus faecium, read-out: MIC E. faecium (VRE7391)
Experimental: as §1, §2, §3, §4

S. pyogenes (5448) = assay: microbe, parasite or virus in culture; format: cell-based; settings: Streptococcus pyogenes, read-out: MIC S. pyogenes (5448)
Experimental: as §1, §2, §3, §4

B. subtilis (168) = assay: microbe, parasite or virus in culture; format: cell-based; settings: Bacillus subtilis, read-out: MIC B. subtilis (168)
Experimental: as §1, §2, §3, §4

S. epidermidis (1587) = assay: microbe, parasite or virus in culture; format: cell-based; settings: Staphylococcus epidermidis, read-out: MIC S. epidermidis (1587)
Experimental: as §1, §2, §3, §4

**Q.** For `CCCCCCNC(=O)CNC(=O)[C@H]1CSCc2cc3cc(c2)CSC[C@@H](NC(=O)[C@@H](CC(C)C)NC(=O)[C@@H](CC(C)C)NC(=O)[C@@H](CO)NC(=O)[C@@H](CCC(N)=O)NC(=O)[C@@H](CC(C)C)NC(=O)[C@@H](CC(C)C)NC(=O)[C@H](NC(=O)[C@@H](C)N)CSC3)C(=O)N2CCC[C@@H]2C(=O)N[C@H](Cc2ccc(O)cc2)C(=O)N[C@H](CO)C(=O)N[C@H]([C@H](C)O)C(=O)N[C@H](Cc2c[nH]cn2)C(=O)N[C@H](CCCNC(=N)N)C(=O)N1` [Peptide P8-D-C6] (H-[dA][dC][dL][dL][dQ][dS][dL][dL][dC][dP][dY][dS][dT][dH][dR][dC]G-NHHex; linker 2-9-16 via TBMB; N-terminus assumed), which “MIC M. luteus” value (M. luteus (NCTC2665)) is on record?
**A.** Its value is 32 µg/mL (≈ 15.5 µM).

**Q.** What about the “MIC VRE E155” value (E. faecium (VRE155)) of the same molecule?
**A.** Its value is 16 to 32 µg/mL.

**Q.** Which results are given for `CCCCCCCCCCCCNC(=O)CNC(=O)[C@H]1CSCc2cc3cc(c2)CSC[C@@H](NC(=O)[C@@H](CC(C)C)NC(=O)[C@@H](CC(C)C)NC(=O)[C@@H](CO)NC(=O)[C@@H](CCC(N)=O)NC(=O)[C@@H](CC(C)C)NC(=O)[C@@H](CC(C)C)NC(=O)[C@H](NC(=O)[C@@H](C)N)CSC3)C(=O)N2CCC[C@@H]2C(=O)N[C@H](Cc2ccc(O)cc2)C(=O)N[C@H](CO)C(=O)N[C@H]([C@H](C)O)C(=O)N[C@H](Cc2c[nH]cn2)C(=O)N[C@H](CCCNC(=N)N)C(=O)N1` [Peptide P8-D-C12] (H-[dA][dC][dL][dL][dQ][dS][dL][dL][dC][dP][dY][dS][dT][dH][dR][dC]G-{NH(CH2)11CH3}; linker 2-9-16 via TBMB; N-terminus assumed)?
**A.** MIC M. luteus (M. luteus (NCTC2665)): 4 to 8 µg/mL; MIC VRE E155 (E. faecium (VRE155)): 8 µg/mL (≈ 3.73 µM); Hemolysis 32 µg/ml (after 1 h) (Sheep blood): 9%

**Q.** Which MIC (M. luteus (NCTC2665); NCTC2665, 16 h, read-out: MIC M. luteus (NCTC2665)) does the source give for `CN[C@H](CC(C)C)C(=O)N[C@H]1C(=O)N[C@@H](CC(N)=O)C(=O)N[C@H]2C(=O)N[C@H]3C(=O)N[C@H](C(=O)N[C@H](C(=O)O)c4cc(O)cc(O)c4-c4cc3ccc4O)[C@H](O)c3ccc(c(Cl)c3)Oc3cc2cc(c3O[C@@H]2O[C@H](CO)[C@@H](O)[C@H](O)[C@H]2O[C@H]2C[C@](C)(N)[C@H](O)[C@H](C)O2)Oc2ccc(cc2Cl)[C@H]1O` [Vancomycin] here?
**A.** Its MIC is less than 1 µg/mL.

**Q.** And the MIC (M. luteus (NCTC2665); NCTC2665, read-out: MIC M. luteus (NCTC2665))?
**A.** The MIC was less than 0.7 µM.

**Q.** What about the MIC (E. faecium (VRE0321); 16 h) of the same molecule?
**A.** The MIC was greater than 64 µg/mL.

**Q.** What about the MIC (E. faecium (VRE0321)) of the same molecule?
**A.** The MIC was greater than 44.2 µM.

**Q.** What about the MIC (E. faecium (VRE2297); 16 h) of the same molecule?
**A.** The MIC was greater than 64 µg/mL.

**Q.** What about the MIC (E. faecium (VRE2297)) of the same molecule?
**A.** The MIC was greater than 44.2 µM.

**Q.** And the MIC (E. faecium (E980); 16 h)?
**A.** The MIC was less than 1 µg/mL.

**Q.** And the MIC (E. faecium (E980))?
**A.** Its MIC is less than 0.7 µM.

**Q.** And the MIC (E. faecium (VRE155); 16 h)?
**A.** Its MIC is 64 µg/mL.

**Q.** And the MIC (E. faecium (VRE155))?
**A.** Its MIC is 44.2 µM.

**Q.** And the MIC (E. faecium (VRE7391); 16 h)?
**A.** The MIC was greater than 64 µg/mL.

**Q.** What about the MIC (E. faecium (VRE7391)) of the same molecule?
**A.** The MIC was greater than 44.2 µM.

**Q.** And the MIC (S. pyogenes (5448); 16 h)?
**A.** Its MIC is less than 1 µg/mL.

**Q.** And the MIC (S. pyogenes (5448))?
**A.** The MIC was less than 0.7 µM.

**Q.** What about the MIC (B. subtilis (168); 16 h) of the same molecule?
**A.** The MIC was less than 1 µg/mL.

**Q.** What about the MIC (B. subtilis (168)) of the same molecule?
**A.** Its MIC is less than 0.7 µM.

**Q.** And the MIC (S. epidermidis (1587); 16 h)?
**A.** The MIC was 2 µg/mL.

**Q.** What about the MIC (S. epidermidis (1587)) of the same molecule?
**A.** Its MIC is 1.4 µM.

**Q.** With `CCCCCCCCNC(=O)CNC(=O)[C@H]1CSCc2cc3cc(c2)CSC[C@@H](NC(=O)[C@@H](CC(C)C)NC(=O)[C@@H](CC(C)C)NC(=O)[C@@H](CO)NC(=O)[C@@H](CCC(N)=O)NC(=O)[C@@H](CC(C)C)NC(=O)[C@@H](CC(C)C)NC(=O)[C@H](NC(=O)[C@@H](C)N)CSC3)C(=O)N2CCC[C@@H]2C(=O)N[C@H](Cc2ccc(O)cc2)C(=O)N[C@H](CO)C(=O)N[C@H]([C@H](C)O)C(=O)N[C@H](Cc2c[nH]cn2)C(=O)N[C@H](CCCNC(=N)N)C(=O)N1` [Peptide P8-D-C8] (H-[dA][dC][dL][dL][dQ][dS][dL][dL][dC][dP][dY][dS][dT][dH][dR][dC]G-NHOctyl; linker 2-9-16 via TBMB; N-terminus assumed) as the molecule, how does the “MIC M. luteus” value (M. luteus (NCTC2665)) read?
**A.** The value was 16 µg/mL (≈ 7.65 µM).

**Q.** What about the “MIC VRE E155” value (E. faecium (VRE155)) of the same molecule?
**A.** Its value is 8 to 16 µg/mL.
